# How the values were obtained:
# [1] = test system: mouse splenocytes; conditions: dietary lutein; cited from earlier work
# [2] = Stability of lutein in prepared cat food; assay type: physicochemical; conditions: diets mixed weekly, stored at −20° C. in sealed containers under nitrogen gas, analyzed periodically
# Procedure: Prior to being fed to the cats, the lutein-containing diet was mixed with additional basal diet to achieve the desired lutein concentration. The final diets were mixed weekly and stored at −20° C. in sealed containers undernitrogen gas. […] Food and water were available ad libitum. Cats were housed (7 cats/pen; 1.5×5.0 m) in a temperature (20 to 22° C.) and light (14 h light) controlled facility.
# [3] = test system: IL-2; test: IL-2 production in Con A-stimulated whole blood cultures, cats; assay type: in vivo, Tabby cats
# Procedure: Whole blood was diluted 1:2 in RPMI-1640 complete medium and cultured for 48 hours in the presence of 5 μg/mL Con A. The conditioned medium was removed and frozen at −80° C. The IL-2 concentrations were determined in duplicate by ELISA using a human IL-2 kit (Intergen, Purchase, N.Y). The human anti-IL-2 was previously determined to cross-react with feline IL-2.
# [4] = design: species or system Tabby cats; conditions: in vivo
# Procedure: (§1) Blood was collected by jugular venipuncture into heparinized evacuated tubes on weeks 0, 2, 4, 8 and 12 and aliquots used for HPLC analysis and for assessing immune responses.
# Plasma lutein, retinol and α-tocopherol were analyzed by reverse phase HPLC. Briefly, plasma protein was precipitated with an equal volume of ethanol containing 0.1% butylated hydroxytoluene (BHT) (Aldrich Chemical Co., Milwaukee, Wis.). The mixture was extracted with 5 mi of a 1:1 mixture of petroleum ether:anhydrous diethyl ether and the dried residue resuspended in mobile phase. The mobile phase was a mixture of acetonitrile, methanol and chloroform (47:47:6, v/v/v). The internal standard used was retinyl acetate (Sigma Chem. Co., St. Louis, Mo.). Samples were eluted on a 5 μm C18 reverse phase column (3.9×150 mm; Resolve, Millipore Corp., Milford Mass.) with a flow rate of 1.0 ml/min. The identity of the eluted compounds was verified by comparing their absorption spectra with those of standard compounds.
# [5] = design: species or system Beagle dogs; conditions: dog, in vivo
# Procedure: (§2) Fifty six female Beagle dogs (17 to 18 months old; average body weight 11.4±0.4 kg) were randomly assigned to be supplemented daily with 0, 5, 10 or 20 mg lutein for 17 weeks. The lutein contained 76.66% lutein and 5.23% zeaxanthin. The lutein supplement was resuspended in soybean oil to the appropriate concentration and 1 mL administered perorally at 0800 h daily. Food (200 g/dog/d) was offered immediately after the lutein supplementation. The basal diet shown in Table 1 below met or exceeded the requirements for all essential nutrients (NRC 1985).
# All dogs were housed in 2×2 m pens (2 dogs/pen) in a temperature (20 to 22° C.) and light (14 h light) controlled facility. Body weight was recorded at weeks 0, 6, and 12.
# [6] = test system: IL-2; test: IL-2 production by PHA-stimulated whole blood cultures, dogs; assay type: in vivo, Beagle dogs
# Procedure: Whole blood was diluted 1:2 with RPMI-1640 supplemented with Hepes and antibiotics (described earlier) and 400 μL of diluted blood were pipetted into 48-well plates (Costar, Cambridge, Mass.). Cells were stimulated with PHA (400 μL of a 5 μg/mL solution) for 48 hours at […] in a 5% CO2 atmosphere. The plates were centrifuged at 200×g for 10 minutes and the supernatant was frozen at −80° C. The IL-2 content of the culture supernatant was determined in triplicate by ELISA (Intergen, Purchase, N.Y.). The polyclonal anti-human IL-2 cross-reacted with canine IL-2 and recombinant human IL-2 was used as the standard.
# [7] = test system: IgG; test: Serum IgG by single radial immunodiffusion, cats; assay type: in vivo, Tabby cats
# Procedure: Serum IgG concentration was determined by single radial immunodiffusion (SRID). Goat antiserum to cat IgG (15%, whole molecule) (Sigma, St. Louis, Mo.) was incorporated into agarose (10 g/L in PBS; Sigma, St. Louis, Mo.). The loading volume for the test serum and standard was 5 μL and the plates were incubated for 24 hours in a humidified chamber. Ring diameters were measured using a SRID reader (Transidyne General Corp., Ann Arbor, Mich.).
# [8] = test system: transplantable murine mammary tumor cell line; conditions: mice, dietary lutein; cited from earlier work
# [9] = test system: malondialdehyde (MDA) production; test: Lipid peroxidation (TBARS) assay, dog plasma; assay type: in vivo, Beagle dogs; conditions: dogs
# Procedure: Plasma lipid peroxidation activity was determined by measuring malondialdehyde (MDA) production. The standard used was 1,1,3,3-tetramethoxypropane JMP) (Sigma Chem. Co., St. Louis, Mo.). Duplicate 500 μL plasma samples were pipetted into 15 ml, glass tubes and 3 mL of 10 g/L phosphoric acid and 1 ml of 6 g/L TBA solution were added. The mixture was boiled in a water bath for 45 minutes. Tubes were allowed to cool and the TBA-MDA complex was extracted with 4 ml of n-butanol. The butanol layer was separated by centrifugation at 1,000×g for 10 minutes and absorbance was measured on at 532 nm (Beckman, Fullerton, Calif.). The TBARS activity was expressed in nmole MDA/L plasma.
# [10] = Plasma extraction and HPLC analysis in dogs (lutein+zeaxanthin, retinol, α-tocopherol); assay type: in vivo, Beagle dogs
# Procedure: as §2, §1
# Plasma was extracted for analysis of lutein, zeaxanthin, retinol and α-tocopherol. Briefly, plasma protein was precipitated by adding an equal volume of ethanol containing 0.1% butylated hydroxytoluene (BHT) (Aldrich Chemical Co., Milwaukee, Wis.). The mixture was extracted with 5 mL of a 1:1 mixture of petroleum ether:anhydrous diethyl ether.
# The dried residue was resuspended in mobile phase consisting of a 47:47:6 (v:v:v) mixture of HPLC-grade acetonitrile: methanol: chloroform (Fisher Scientific, Fair Lawn, N.J.). Lutein, zeaxanthin and α-tocopherol were quantitated by comparing the area under the curve whereas retinol was quantitated using peak height. The identity of the eluted compounds was confirmed by comparing their absorption spectrum with that of pure standards. Because baseline separation of lutein and zeaxanthin was not accomplished, plasma concentrations were reported as lutein+zeaxanthin.
# [11] = throughout the experimental period
structure (smiles),measurement,setting,value
CC1=C[C@H](O)CC(C)(C)[C@H]1/C=C/C(C)=C/C=C/C(C)=C/C=C/C=C(C)/C=C/C=C(C)/C=C/C1=C(C)C[C@@H](O)CC1(C)C [lutein],Lymphocyte proliferation,[1],enhance
same,Destruction of lutein in prepared food,[2],no significant destruction
same,IL-2 production,[3]; [11],no significant differences
same,Average concentration of IL-2 in Con A-stimulated cultures,[3]; throughout the study,15.1 ± 0.79 ng/mL
same,Plasma lutein,[4],increased in a dose-dependent manner
same,Body weight average,[5],11.4 ± 0.4 kg
same,Effect on changes in body weight,[5],did not significantly affect
same,Production of IL-2 by PHA-stimulated PBMC among dietary treatments,[6]; [11],did not differ significantly
same,"Concentration of IL-2 in culture medium, average",[6]; throughout the study,15.7 ± 0.4 ng/mL
same,Plasma IgG vs unsupplemented animals,"[7]; cats fed 10 mg lutein, week 12",significantly higher
same,Concentrations of plasma IgG,"[7]; cats fed 1 or 10 mg lutein, week 8",significantly higher
same,Mammary tumor incidence,[8],decreases
same,Tumor growth,[8],decreases
same,Tumor latency,[8],shortened
same,Effect on plasma TBARS activity,[9],did not significantly affect
same,"Plasma TBARS activity, average",[9]; across all treatments and periods,95.8±0.1 nmol MDA/L
same,Plasma concentrations of lutein+zeaxanthin,"[10]; dogs fed 10 and 20 mg lutein, after week 2, more gradually",continued to increase
same,Plasma lutein+zeaxanthin vs unsupplemented animals,"[10]; dogs, weeks 2 through 12, P<0.05",significantly higher
same,Plasma concentrations of lutein+zeaxanthin,"[10]; lutein-supplemented dogs, after 2 weeks of feeding",increased rapidly
